Assay results as given in patent publication US11179412B2, “Methods of treating conditions involving elevated inflammatory response” (University of Pittsburgh—Of the Commonwealth System of …, priority 2017, dated 2021).
Structures can show the parent of a compound that is named as a salt.

Test system: STING activation (IFNβ release) in iBMDMs
Assay: IFNβ release ELISA after STING ligand (or LPS) stimulation, iBMDMs
Format: cell-based, mouse
Settings: not given
Source text: Commercially available enzyme-linked immunosorbent assay (ELISA) kits were used to measure the concentrations of mouse IFNβ (Thermo Fisher Scientific) or human IFNβ (Thermo Fisher Scientific) in culture medium according to the manufacturer's instructions. […]

Row | Compound | fold increase in IFN-β release
1 | OCCOc1ccc(/C(=C(/CCCl)c2ccccc2)c2ccccc2)cc1 [Ospemifene] | 0.10 fold

Same assay, conditions: iBMDMs; 3′3′-cGAMP 10 μg/ml, 16 hours; compound 10 μM

Row | Compound | fold increase in IFN-β release
2 | O=C(Nc1ccccc1Br)N[C@@H]1CCN(c2ccc(C(F)(F)F)cn2)C1 [SB705498] | 0.32 fold
3 | Cc1cc(C)c(S(=O)(=O)n2cc(C)cc2C)c(C)c1 [HJC0350] | 1.05 fold
4 | OC[C@H]1O[C@@H](c2ccc(Cl)c(Cc3ccc(O[C@H]4CCOC4)cc3)c2)[C@H](O)[C@@H](O)[C@@H]1O [Empagliflozin (BI 10773), Empagliflozin] | 0.57 fold
5 | COc1ccccc1OCCNCC(O)COc1cccc2[nH]c3ccccc3c12 (stereo not drawn) [Carvedilol] | 1.87 fold
6 | N#CC[C@H](C1CCCC1)n1cc(-c2ncnc3[nH]ccc23)cn1 [Ruxolitinib (INCB018424), Ruxolitinib] | 0.20 fold
7 | C=CC(=O)N1CCC[C@@H](n2nc(-c3ccc(Oc4ccccc4)cc3)c3c(N)ncnc32)C1 [Ibrutinib (PCI-32765), Ibrutinib] | 0.53 fold
8 | O=C(O)CCc1ccc(NCc2cccc(Oc3ccccc3)c2)cc1 [GW9508] | 0.80 fold
9 | CS(=O)(=O)N1CCN(Cc2cc3nc(-c4cccc5[nH]ncc45)nc(N4CCOCC4)c3s2)CC1 [GDC-0941] | 2.13 fold
10 | CCc1cccc2c3c([nH]c12)C(CC)(CC(=O)O)OCC3 (stereo not drawn) [Etodolac] | 0.35 fold
11 | CC(C)(Cc1ccc2ccccc2c1)NC[C@@H](O)COc1cccc(Cl)c1C#N [NPS-2143] | 0.99 fold
12 | C[C@H](CS)C(=O)N1CCC[C@H]1C(=O)O [Captopril] | 2.62 fold
13 | COc1ccc(-c2nc3ccc(C4=NNC(=O)CC4C)cc3[nH]2)cc1 (stereo not drawn) [Pimobendan] | 1.79 fold
14 | CN(C)C(=O)c1ccc(S(=O)(=O)c2ccc(NC(=O)[C@@](C)(O)C(F)(F)F)c(Cl)c2)cc1 [AZD7545] | 3.45 fold
15 | COc1cc(CCc2cc(NC(=O)c3ccc(N4CC(C)NC(C)C4)cc3)n[nH]2)cc(OC)c1 (stereo not drawn) [AZD4547] | 0.35 fold
16 | COCCn1c2c([n+](Cc3cnccn3)c1C)C(=O)c1ccccc1C2=O [YM155 (Sepantronium Bromide), Sepantronium Bromide] | 0.30 fold
17 | CC(=O)O[C@]1(C(C)=O)CC[C@H]2[C@@H]3C=C(Cl)C4=CC(=O)[C@@H]5C[C@@H]5[C@]4(C)[C@H]3CC[C@@]21C [Cyproterone Acetate] | 1.24 fold
18 | Cc1cc(Nc2cc(N3CCN(C)CC3)nc(Sc3ccc(NC(=O)C4CC4)cc3)n2)[nH]n1 [VX-680 (Tozasertib, MK-0457), Tozasertib] | 0.91 fold
19 | C[C@@H](NCCCc1cccc(C(F)(F)F)c1)c1cccc2ccccc12 [Cinacalcet HCl] | 0.55 fold
20 | CCOC(=O)C1=C(COCCN)NC(C)=C(C(=O)OC)C1c1ccccc1Cl (stereo not drawn) [Amlodipine] | 1.46 fold
21 | COc1ccc(C(=O)Nc2sc3c(c2C(N)=O)CCCC3)cc1OC [TCS 359] | 0.45 fold
22 | Cc1ccc([C@@H]2O[C@H](CO)[C@@H](O)[C@H](O)[C@H]2O)cc1Cc1ccc(-c2ccc(F)cc2)s1 [Canagliflozin] | 1.58 fold
23 | Cc1[nH]c(/C=C2\C(=O)Nc3ccc(S(=O)(=O)N(C)c4cccc(Cl)c4)cc32)c(C)c1C(=O)N1CCN(C)CC1 [SU11274] | 0.75 fold

Row | Compound | fold increase in IFN-β release
24 | NC(=O)c1ccc(-c2nc(-c3ccccn3)c(-c3ccc4c(c3)OCO4)[nH]2)cc1 [SB431542] | 0.78 fold
25 | COc1ccccc1S(=O)(=O)Nc1ccc2c(c1)CN(C)C(=O)N2 [PFI-1 (PF-6405761)] | 0.52 fold
26 | CCOc1nc2cccc(C(=O)O)c2n1Cc1ccc(-c2ccccc2-c2nnn[nH]2)cc1 [Candesartan] | 2.31 fold
27 | NC(=O)Nc1sc(-c2ccc(F)cc2)cc1C(N)=O [TPCA-1] | 2.63 fold
28 | CNC(=O)[C@H](Cc1ccccc1)NC(=O)[C@H](CC(C)C)[C@H](CSc1cccs1)C(=O)NO [Batimastat (BB-94), Batimastat] | 1.20 fold
29 | CNc1nc(Nc2cn(C(C)(C)C#N)nc2C)ncc1C(F)(F)F [GNE-0877] | 1.32 fold
30 | COc1cc(N2CCN(C)CC2)ccc1Nc1nccc(-c2cn(C)c3cnccc23)n1 [AZ191] | 2.01 fold
31 | COc1cc2c(N3CCN(C(=O)Nc4ccc(OC(C)C)cc4)CC3)ncnc2cc1OCCCN1CCCCC1 [Tandutinib (MLN518), Tandutinib] | 0.65 fold
32 | (−)-MK 801 Maleate | 4.76 fold
33 | CCN(c1cc(-c2ccc(CN3CCOCC3)cc2)cc(C(=O)NCc2c(C)cc(C)[nH]c2=O)c1C)C1CCOCC1 [EPZ-6438] | 1.03 fold
34 | CCOc1ccc(Cc2cc([C@@H]3O[C@H](CO)[C@@H](O)[C@H](O)[C@H]3O)ccc2Cl)cc1 [Dapagliflozin] | 1.57 fold
35 | CC(C)OC(=O)C1=CN(C(=O)c2ccc(F)c(F)c2)CC(C)(C)c2c1[nH]c1ccccc21 [XL335] | 0.26 fold
36 | COc1ccc([C@]2(C#N)CC[C@@H](C(=O)O)CC2)cc1OC1CCCC1 [Cilomilast] | 2.08 fold
37 | CCCCc1nc(Cl)c(CO)n1Cc1ccc(-c2ccccc2-c2nn[nH]n2)cc1 [Losartan Potassium (DuP 753), Losartan Potassium] | 1.35 fold
38 | CCc1c(C(=O)NCCc2ccc(N3CCCCC3)cc2)[nH]c2ccc(Cl)cc12 [Org 27569] | 1.74 fold
39 | CCOC(=O)N1c2ccc(C(F)(F)F)cc2[C@@H](N(Cc2cc(C(F)(F)F)cc(C(F)(F)F)c2)C(=O)OC)C[C@H]1CC [Torcetrapib] | 3.84 fold
40 | CC(C)OC(=O)OCOP(=O)(CO[C@H](C)Cn1cnc2c(N)ncnc21)OCOC(=O)OC(C)C [Tenofovir Disoproxil Fumarate] | 2.88 fold
41 | VU 0364439 | 1.60 fold
42 | Cn1c(N2CCCCS2(=O)=O)nc(C(=O)NCc2ccc(F)cc2)c(O)c1=O [BMS-707035] | 1.59 fold
43 | Cc1[nH]c(/C=C2\C(=O)Nc3ccc(S(=O)(=O)Cc4c(Cl)cccc4Cl)cc32)c(C)c1C(=O)N1CCC[C@@H]1CN1CCCC1 [PHA-665752] | 0.43 fold
44 | CCn1c(=O)c2c(nc(/C=C/c3ccc(OC)c(OC)c3)n2C)n(CC)c1=O [Istradefylline] | 1.90 fold
45 | O=C(O)c1cc2cccc([N+](=O)[O-])c2[nH]1 [CRT0044876] | 2.75 fold

Row | Compound | fold increase in IFN-β release
46 | CN(c1ncccc1CNc1nc(Nc2ccc3c(c2)CC(=O)N3)ncc1C(F)(F)F)S(C)(=O)=O [PF-562271] | 0.21 fold
47 | Cn1cc(C2=C(c3cn(C4CCN(Cc5ccccn5)CC4)c4ccccc34)C(=O)NC2=O)c2ccccc21 [Enzastaurin (LY317615), Enzastaurin] | 1.02 fold
48 | O=C(/C=C/c1ccccc1)NC(NC(=S)Nc1ccc(Cl)cc1)C(Cl)(Cl)Cl (stereo not drawn) [Sal003] | 0.18 fold
49 | COc1ccc(C[C@@H](C)NC[C@H](O)c2ccc(O)c(NC=O)c2)cc1.COc1ccc(C[C@@H](C)NC[C@H](O)c2ccc(O)c(NC=O)c2)cc1.O=C(O)/C=C/C(=O)O [Formoterol Hemifumarate] | 1.76 fold
50 | C[C@H](NCc1ccc(OCc2cccc(F)c2)cc1)C(N)=O [Safinamide Mesylate] | 5.18 fold
51 | 6H05 | 1.18 fold
52 | CS(=O)(=O)c1ccc(-c2cnc(N)c(C(=O)Nc3ccccc3)n2)cc1 [VE-821] | 0.45 fold
53 | Cc1ccc2nc(NC(=O)CSc3nc4c(c(=O)n3-c3ccccc3)SCC4)sc2c1 [IWP-2] | 3.84 fold
54 | Cc1c(Cl)cccc1Nc1ccccc1C(=O)O [Tolfenamic Acid] | 2.19 fold
55 | Cc1cnc(-c2cc(N3CCN(C(=O)CCS(C)(=O)=O)CC3)ncc2Cl)c(C)c1 [PF-5274857] | 0.16 fold
56 | COc1cccc2c1C(=O)c1c(O)c3c(c(O)c1C2=O)C[C@@](O)(C(C)=O)C[C@@H]3O[C@H]1C[C@H](N)[C@H](O)[C@H](C)O1 [Daunorubicin HCl] | 0.11 fold
57 | CCNC(=O)[C@H]1O[C@@H](n2cnc3c(N)nc(NCCc4ccc(CCC(=O)O)cc4)nc32)[C@H](O)[C@@H]1O [CGS 21680 HCl] | 2.00 fold
58 | CN[C@@H](C)C(=O)N[C@H](C(=O)N1CCC[C@H]1C(=O)Nc1snnc1-c1ccccc1)C1CCCCC1 [GDC-0152] | 1.79 fold
59 | C#CCC(Cc1cnc2nc(N)nc(N)c2n1)c1ccc(C(=O)N[C@@H](CCC(=O)O)C(=O)O)cc1 (stereo partly drawn) [Pralatrexate] | 4.31 fold
60 | CC#CCn1c(N2CCC[C@@H](N)C2)nc2c1c(=O)n(Cc1nc(C)c3ccccc3n1)c(=O)n2C [Linagliptin] | 2.07 fold
61 | Cc1c(-c2ccc(O)cc2)n(Cc2ccc(OCCN3CCCCCC3)cc2)c2ccc(O)cc12 [Bazedoxifene HCl] | 0.15 fold
62 | Cc1ccc(NCCCc2ccccc2)c(N)c1 [JSH-23] | 2.80 fold
63 | Cc1[nH]c2ccccc2c1CCNC(=O)c1cccs1 [CK-636] | 2.06 fold
64 | C=C[C@@]1(C)CC(=O)[C@]2(O)[C@@]3(C)[C@@H](O)CCC(C)(C)[C@@H]3[C@H](O)[C@H](OC(C)=O)[C@@]2(C)O1 [Forskolin] | 0.81 fold
65 | Cc1cc(Nc2ccc(NC(=O)c3ccc(Nc4ccnc5ccccc45)cc3)cc2)nc(N)n1 [SGI-1027] | 0.37 fold

Same assay, conditions: iBMDMs; 3′3′-cGAMP 10 μg/ml, 16 hours; compound 10 μM; HCl Trihydrate

Row | Compound | fold increase in IFN-β release
66 | CCc1c2c(nc3ccc(OC(=O)N4CCC(N5CCCCC5)CC4)cc13)-c1cc3c(c(=O)n1C2)COC(=O)[C@]3(O)CC [Irinotecan HCl Trihydrate] | 0.51 fold
